{"source": "ChEMBL document CHEMBL1140621", "about": "“2D-autocorrelation descriptors for predicting cytotoxicity of naphthoquinone ester derivatives against oral human epidermoid carcinoma” (Bioorg Med Chem, 2007)", "system": "KB", "assay": "Cytotoxicity against human KB cells", "format": "functional, cell-based", "data": [{"compound": "COc1cc(C(=O)OCC(C)(C)CC2=CC(=O)c3ccccc3C2=O)c(OC)c2ccccc12", "values": [{"measurement": "IC50", "value": 12.5, "unit": "µM"}]}]}
